Drawing on publication PMC4227753, “Mycobacterium smegmatis DinB2 misincorporates deoxyribonucleotides and ribonucleotides during templated synthesis and lesion bypass” (Nucleic Acids Research, 2014), this text covers Kd for two molecules.

For this experiment, the target named is T1, DinB2 (Mycolicibacterium smegmatis, UniProt A0QR77).
T1 construct: gene dinB
Briefly: single-turnover primer extension, kobs vs [NTP], one-site fit. The class given is biochemical. As to conditions: 5 mM MgCl2, 10 mM Tris-HCl pH 7.5, 37 C, 1 uM DinB2, 50 nM 13-mer/18-mer primer-template.

pKd: −log10 of the molar value.

T1 sequence (A0QR77 entry or part of it): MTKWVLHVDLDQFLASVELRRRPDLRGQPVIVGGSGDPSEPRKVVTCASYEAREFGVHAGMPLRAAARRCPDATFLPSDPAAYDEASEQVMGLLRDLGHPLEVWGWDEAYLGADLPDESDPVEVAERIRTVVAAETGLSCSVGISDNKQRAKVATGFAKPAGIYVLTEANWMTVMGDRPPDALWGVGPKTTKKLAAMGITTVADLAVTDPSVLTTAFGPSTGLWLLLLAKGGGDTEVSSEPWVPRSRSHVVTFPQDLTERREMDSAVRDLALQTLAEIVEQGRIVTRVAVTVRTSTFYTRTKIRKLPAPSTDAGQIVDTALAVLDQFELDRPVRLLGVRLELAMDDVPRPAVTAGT

What is called pKd is the Kd on a negative log10 scale, so that one unit is a factor of ten. Consider `Nc1nc2c(ncn2[C@@H]2O[C@H](COP(=O)(O)OP(=O)(O)OP(=O)(O)O)[C@@H](O)[C@H]2O)c(=O)[nH]1` [GTP], for which the pKd (mispair: opposite template dT (oligo-dT5 tail)) was 3.41.
`O=c1ccn([C@@H]2O[C@H](COP(=O)(O)OP(=O)(O)OP(=O)(O)O)[C@@H](O)[C@H]2O)c(=O)[nH]1` [UTP]: for the setting “mispair: opposite template dC (oligo-dC5 tail)”, the pKd was 3.39.
